The nature of this experiment: concentration-dependent intrinsic compound fluorescence, S. cerevisiae AD/pABC3, flow cytometry, Cherry Pick1 hits, artefact control for antifungal efflux pump inhibitor project, dose response (AID 588620).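 Further: red emission of unstained cells excited at 488 nm measured in PE-Texas Red channel; cell median fluorescence as percent of DMSO wells so 100% equals vehicle baseline.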 The settings on record: S. cerevisiae AD/pABC3 compound autofluorescence, flow cytometry; at 33.1 µM (top of the series).

The source made the active and inactive calls.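 How the source made its calls: active means fitted half-maximal concentration below 30 µM for cell fluorescence in pump-free yeast, so likely self-fluorescent; inactive means the rest.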

Data on 52 compounds can be found in PubChem BioAssay AID588620 (NMMLSC, 2011).

`Cc1ccc(CNC(=O)CCCn2nc(C)c3c(C)n(-c4ccccc4)nc3c2=O)cc1`: the fluorescence response, % of control is 93.6% (inactive).

As for `Cc1ccc2c(c1)[C@H]1[C@H](CO2)[C@H](c2ccccc2)[C@]2(C)C(=O)Nc3cc(F)c(F)cc3C(=O)N12`, the fluorescence response, % of control was 90.5% (inactive).

`O=S(=O)(NCCc1cn2ccccc2n1)c1ccc(F)c(C(F)(F)F)c1`: the fluorescence response, % of control was 118% (inactive).

Turning to `NC1=NC[C@H](Cc2ccccc2)N1CCCCC1CCCCC1`, the fluorescence response, % of control was 127% (inactive).

In the case of `c1ccc2c(c1)Cc1cc(CN3CCOCC3)ccc1-2`, the fluorescence response, % of control was 109% (inactive).

For the compound `Cc1cc(C(=O)NC2CC(C)(C)Cc3c2cnn3-c2cccc(F)c2)n(C)n1` (configuration not stated), the fluorescence response, % of control was 82.7% (inactive).

As for `O=C(CSc1nnc(Cc2cccs2)n1Cc1ccco1)Nc1ccc(Br)cc1`, the fluorescence response, % of control is 86% (inactive).

As for `Cc1ccc(Cn2nnc3c(=O)[nH]c(C4CCN(S(=O)(=O)c5ccc(F)cc5)CC4)nc32)cc1`, the fluorescence response, % of control was 116% (inactive).

For the compound `CCCOc1ccc(-c2nc(N3CCN(C)CC3)c3ccccc3n2)cc1`, the fluorescence response, % of control is 95.7% (inactive).

`O=c1[nH]c(C2CCN(S(=O)(=O)c3ccc4c(c3)OCCO4)CC2)nc2c1nnn2Cc1ccccc1F`: the fluorescence response, % of control was 82.5% (inactive).

As for `O=C(Nc1ccnc(-c2cccnc2)n1)c1cccc(Cl)c1Cl`, the fluorescence response, % of control is 104% (inactive).

Regarding `CCC(Sc1nc2cc(OC)c(OC)cc2c(=O)n1CCc1ccc(OC)c(OC)c1)C(=O)NCCOC` (configuration not stated), the fluorescence response, % of control was 83.6% (inactive).

On to `COCCOC(=O)c1c(C)oc2ccc(NS(=O)(=O)c3ccc(F)cc3)cc12`, for which the fluorescence response, % of control is 90.9% (inactive).

Take `CCn1ncc(Br)c1C(=O)Nc1cc(C)cc(C)c1`: the fluorescence response, % of control is 129% (inactive).

Turning to `COc1ccc(/C=c2\s/c(=C/C(=O)c3ccc(C)cc3)[nH]c2=O)c(OC)c1`, the fluorescence response, % of control was 98.7% (inactive).

In the case of `COc1ccc(CCC(=O)NNC(=O)Cn2nc(C)cc2C)cc1`, the fluorescence response, % of control is 100% (inactive).

For `CCOc1ccc(S(=O)(=O)N(C(=O)c2ccco2)c2cc3sc(=O)oc3c3ccccc23)cc1`, the fluorescence response, % of control is 92.2% (inactive).

Take `COc1ccc2[nH]c3c(C)c4cc[n+](C)cc4c(C)c3c2c1`: the fluorescence response, % of control was 153% (inactive).

As for `COc1ccc(-c2nc3ccccc3c(=O)n2CCOc2ccc(C)cc2C)cc1`, the fluorescence response, % of control was 113% (inactive).

Take `COc1ccc2cc(C#N)c(N3CCN(Cc4nnnn4CCC(C)C)CC3)nc2c1`: the fluorescence response, % of control was 113% (inactive).

Consider `Cc1cnc(C(=O)NC2CC(C)(C)Cc3c2cnn3-c2ccccc2)cn1` (configuration not stated), for which the fluorescence response, % of control was 98.5% (inactive).

`COc1ccc(CNC(=O)C(C)n2nc(C)c3c(C)n(-c4ccc(C)cc4)nc3c2=O)cc1` (configuration not stated): the fluorescence response, % of control was 77.9% (inactive).

Turning to `COC(=O)c1ccc(S(=O)(=O)NCc2ccc(OC)cc2)n1C`, the fluorescence response, % of control was 96.9% (inactive).

Regarding `Cc1cc(C(=O)NC2CC(C)(C)Cc3c2cnn3-c2ccc(F)cc2)no1` (configuration not stated), the fluorescence response, % of control is 98.7% (inactive).

Take `CCOC(=O)c1cccc(NC(=O)c2ccc(NC(=O)c3ccco3)cc2)c1`: the fluorescence response, % of control was 85.8% (inactive).

On to `CCC(=O)N1CCC2(CC1)Oc1ccc(Cl)cc1C(=O)C21CC(c2ccc(Cl)cc2)=NO1` (configuration not stated), for which the fluorescence response, % of control is 89.8% (inactive).

`CCC(Sc1nc2ccsc2c(=O)n1Cc1ccc(C(=O)O)cc1)C(=O)Nc1ccc(C)c(Cl)c1` (configuration not stated): the fluorescence response, % of control was 81.2% (inactive).

In the case of `CN(C(=O)c1ccc(NC(=O)c2ccco2)cc1)c1ccccc1`, the fluorescence response, % of control was 105% (inactive).

As for `COc1cccc(CN(CC(=O)NCC2CCCO2)C(=O)CCC(=O)Nc2cc(C)on2)c1` (configuration not stated), the fluorescence response, % of control is 103% (inactive).

As for `COc1ccc2sc(-c3ccccc3OC)c(-c3ccc(OCCN4CCCC4)cc3)c2c1`, the fluorescence response, % of control was 114% (inactive).

`CCC1Nc2ncnc(N3CCN(c4ccccn4)CC3)c2N(Cc2ccc(Br)cc2)C1=O` (configuration not stated): the fluorescence response, % of control is 85.4% (inactive).

On to `O=C(COC(=O)c1ccc(Cl)cc1O)NCCN1C(=O)CSC1=O`, for which the fluorescence response, % of control is 88.6% (inactive).

Regarding `COc1ccc(/C=N/N=C2/NC(=O)C(CC(=O)O)S2)cc1OCc1ccc(Cl)cc1` (configuration not stated), the fluorescence response, % of control was 91.7% (inactive).

With `CC(C)(C)c1cc(C(c2cccnc2)N2CCN(CCO)CC2)cc(C(C)(C)C)c1O` (configuration not stated), the fluorescence response, % of control was 78.8% (inactive).

Take `O=C(c1cc(COc2cccc(C(F)(F)F)c2)on1)N1CCC(c2ccncc2)CC1`: the fluorescence response, % of control is 109% (inactive).

In the case of `COc1ccc2c(c1)OC[C@H]1[C@H]2N2C(=O)c3ccc(C)cc3NC(=O)[C@@]2(C)[C@H]1c1ccccc1`, the fluorescence response, % of control was 106% (inactive).

`Cc1ccc(CN2C(=O)C(Cc3ccccc3)Nc3ncnc(N4CCN(c5ccccc5)CC4)c32)cc1` (configuration not stated): the fluorescence response, % of control was 111% (inactive).

On to `CC(CCc1ccccc1)NC(=O)c1ccc(NC(=O)c2cccc(Br)c2)cc1` (configuration not stated), for which the fluorescence response, % of control is 88.6% (inactive).

Take `COc1ccc2c(-c3ccc(OCCN4CCCCC4)cc3)c(-c3ccccc3OC)sc2c1`: the fluorescence response, % of control is 102% (inactive).

As for `Cc1ccc2nc(-c3ccccc3)cc(C(=O)N3CCN(S(=O)(=O)c4c(C)noc4C)CC3)c2c1`, the fluorescence response, % of control is 109% (inactive).

Consider `O=c1[nH]c(C2CCN(S(=O)(=O)c3ccc4c(c3)OCCO4)CC2)nc2c1nnn2Cc1ccc(F)cc1`, for which the fluorescence response, % of control is 94.5% (inactive).

With `COc1cccc(-c2sc3ccc(OC)cc3c2-c2ccc(OCCN3CCCCC3)cc2)c1`, the fluorescence response, % of control was 102% (inactive).

As to `CCSc1cc(N2CCOCC2)nc(-c2ccccc2)n1`, the fluorescence response, % of control is 89.7% (inactive).

For `Cn1cc(C(c2ccccn2)c2cn(C)c3ccccc23)c2ccccc21`, the fluorescence response, % of control was 97.1% (inactive).

Consider `CCOC(=O)c1sc2nc3c(SCC(=O)O)cc(C(=O)c4ccccc4O)cn3c(=O)c2c1C`, for which the fluorescence response, % of control was 132% (inactive).

Regarding `Cc1cc(C)cc(-n2ncc3c2CCCC3NC(=O)c2cc(C)[nH]n2)c1` (configuration not stated), the fluorescence response, % of control was 96.3% (inactive).

`Cc1ccc(CN(Cc2cccnc2)C(=O)CN2C(=O)COc3ccccc32)o1`: the fluorescence response, % of control was 96.1% (inactive).

`COc1ccc(NC(=O)Nc2cccc3c2O[C@H](CN(C)C(=O)Nc2ccc(OC)cc2)[C@@H](C)CN([C@H](C)CO)C3=O)cc1`: the fluorescence response, % of control was 86% (inactive).

Turning to `O=C(CSc1nnc(Cc2cccs2)n1Cc1ccco1)Nc1cccc(Cl)c1`, the fluorescence response, % of control is 128% (inactive).

Take `CCCCOc1ccc(C(=O)NCC(=O)OCC(=O)c2c(N)n(C)c(=O)n(C)c2=O)cc1`: the fluorescence response, % of control is 89% (inactive).

Regarding `Cc1ccc(C)c(C(=O)COC(=O)c2ccc(C)c(S(=O)(=O)N3CCOCC3)c2)c1`, the fluorescence response, % of control was 93.5% (inactive).

Regarding `CC(C)c1ccc(/C=c2\sc3nc(-c4ccncc4)nn3c2=O)cc1`, the fluorescence response, % of control is 82.5% (inactive).
